Source: patent publication US6191138A, “Phenanthridines” (Byk Gulden Lomberg Chemische Fabrik GmbH, priority 1996, dated 2001)

What follows are molecules tested on PDE IV (assay: Inhibition of PDE IV Activity (method of Bauer and Schwabe, adapted to microtiter plates)).
Assay type: biochemical

Compound | -log IC50 (Inhibition of PDE IV Activity)
COC(=O)c1ccc(C2=N[C@H]3CCCC[C@H]3c3cc(OC)c(OC)cc32)cc1 (single isomer, unassigned) [Compound 12, (+)-cis-8,9-dimethoxy-6-[4-(methoxycarbonyl)phenyl]-1,2,3,4,4a,10b-hexahydrophenanthridine] | 4.95
CCOc1cc2c(cc1OC)[C@@H]1CCCC[C@@H]1N=C2c1ccc(C(=O)OC)cc1 (racemic) [Compound 5, (+/ -)-cis-8-ethoxy-9-methoxy-6-[4-(methoxycarbonyl)phenyl]-1,2,3,4,4a,10b-hexahydrophenanthridine] | 7.02
CCOc1cc2c(cc1OCC)[C@@H]1CCCC[C@@H]1N=C2c1cccc(C(=O)OC)c1 (racemic) [Compound 6, (+/-)-cis-8,9-diethoxy-6-[3-(methoxycarbonyl)phenyl]-1,2,3,4,4a ,10b-hexahydrophenanthridine] | 8.14
CCOc1cc2c(cc1OCC)[C@@H]1CCCC[C@@H]1N=C2c1cccc(C(=O)O)c1.Cl (racemic) [Compound 18, (+/ -)-cis-6-(3-carboxyphenyl)-8,9-diethoxy-1,2,3,4,4a,10b-hexahydrophenanthridine hydrochloride] | 7.69
COC(=O)c1ccc(C2=N[C@H]3CCCC[C@H]3c3cc(OC(F)F)c(OC)cc32)cc1 (racemic) [Compound 3, (+/ -)-cis-9-difluoromethoxy-8-methoxy-6-[4-(methoxycarbonyl)phenyl]-1,2,3,4,4a ,10b-hexahydrophenanthridine] | 7.73
COc1cc2c(cc1OC)[C@@H]1CCCC[C@@H]1N=C2c1ccc(C(=O)O)cc1.Cl (racemic) [Compound 15, (+/ -)-cis-6-(4-carboxyphenyl)-8,9-dimethoxy-1,2,3,4,4a,10b-hexahydrophenanthridine hydrochloride] | 6.81
CCOc1cc2c(cc1OCC)[C@@H]1CCCC[C@@H]1N=C2c1ccc(C(=O)OC)cc1 (single isomer, unassigned) [Compound 10, (+)-cis-8,9-diethoxy-6-[4-(methoxycarbonyl)phenyl]-1,2,3,4,4a,10b-hexahydrophenanthridine] | 7.48
CCOc1cc2c(cc1OCC)[C@@H]1CCCC[C@@H]1N=C2c1ccccc1C(=O)OC (racemic) [Compound 7, (+/ -)-cis-8,9-diethoxy-6-[2-(methoxycarbonyl)phenyl]-1,2,3,4,4a,10b-hexahydrophenanthridine] | 6.34
COC(=O)c1ccc(C2=N[C@H]3CCCC[C@H]3c3cc(OC)c(OC)cc32)cc1 (single isomer, unassigned) [Compound 11, (-)-cis-8,9-dimethoxy-6-[4-(methoxycarbonyl)phenyl]-1,2,3,4,4a,10b-hexahydrophenanthridine] | 7.52
CCOc1cc2c(cc1OC)[C@@H]1CCCC[C@@H]1N=C2c1ccc(C(=O)O)cc1.Cl (racemic) [Compound 17, (+/ -)-cis-6-(4-carboxyphenyl)-8-ethoxy-9-methoxy-1,2,3,4,4a,10b-hexahydrophenanthridine hydrochloride] | 6.79
COC(=O)c1ccc(C2=N[C@H]3CCCC[C@@H]3c3cc(OC)c(OC)cc32)cc1 (racemic) [Compound 8, (+/ -)-trans-8,9-dimethoxy-6-[4-(methoxycarbonyl)phenyl]-1,2,3,4,4a,10b-hexahydrophenanthridine] | 5.92
CCOc1cc2c(cc1OCC)[C@@H]1CCCC[C@@H]1N=C2c1ccc(C(=O)OC)cc1 (single isomer, unassigned) [Compound 9, (-)-cis-8,9-diethoxy-6-[4-(methoxycarbonyl)phenyl]-1,2,3,4,4a,10b-hexahydrophenanthridine] | 8.52
CCOc1cc2c(cc1OC)C(c1ccc(C(=O)OC)cc1)=N[C@H]1CCCC[C@@H]21 (racemic) [Compound 4, (+/ -)-cis-9-ethoxy-8-methoxy-6-[4-(methoxycarbonyl)phenyl]-1,2,3,4,4a,10b-hexahydrophenanthridine] | 8.73
CCOc1cc2c(cc1OCC)[C@@H]1CCCC[C@@H]1N=C2c1ccc(C(=O)OC)cc1 (racemic) [Compound 2, (+/ -)-cis-8,9-diethoxy-6-[4-(methoxycarbonyl)phenyl]-1,2,3,4,4a,10b-hexahydrophenanthridine] | 8.84
COC(=O)c1ccc(C2=N[C@H]3CCCC[C@H]3c3cc(OC)c(OC)cc32)cc1 (racemic) [Compound 1, (+/ -)-cis-8,9-dimethoxy-6-[4-(methoxycarbonyl)phenyl]-1,2,3,4,4a,10b-hexahydrophenanthridine] | 7.39
CCOc1cc2c(cc1OC)C(c1ccc(C(=O)O)cc1)=N[C@H]1CCCC[C@@H]21.Cl (racemic) [Compound 16, (+/ -)-cis-6-(4-carboxyphenyl)-9-ethoxy-8-methoxy-1,2,3,4,4a,10b-hexahydrophenanthridine hydrochloride] | 8.66
CNC(=O)c1ccc(C2=N[C@H]3CCCC[C@H]3c3cc(OC)c(OC)cc32)cc1 (racemic) [Compound 20, (+/-)-cis-6-[4-(N-methylaminocarbonyl)phenyl]-8,9-dimethoxy-1,2,3,4,4a ,10b-hexahydrophenanthridine] | 5.18
CCOc1cc2c(cc1OCC)[C@@H]1CCCC[C@@H]1N=C2c1ccc(C(=O)O)cc1.Cl (racemic) [Compound 14, (+/ -)-cis-6-(4-carboxyphenyl)-8,9-diethoxy-1,2,3,4,4a,10b-hexahydrophenanthridine hydrochloride] | 8.27
COc1cc2c(cc1OC)[C@@H]1CCCC[C@@H]1N=C2c1ccc(C(=O)OCC2CC2)cc1 (racemic) [Compound 13, (+/ -)-cis-8,9-dimethoxy-6-[4-(cyclopropylmethoxycarbonyl)phenyl]-1,2,3,4,4a ,10b-hexahydrophenanthridine] | 7.39
COc1cc2c(cc1OC(F)F)[C@@H]1CCCC[C@@H]1N=C2c1ccc(C(=O)O)cc1.Cl (racemic) [Compound 19, (+/ -)-cis-6-(4-carboxyphenyl)-9-difluoromethoxy-8-methoxy-1,2,3,4,4a,10b-hexahydrophenanthridine hydrochloride] | 7.55
